Experimental data reported in publication PMC4721062, “Oxadiazole-2-oxides may have other functional targets, in addition to SjTGR, through which they cause mortality in Schistosoma japonicum” (Parasites & Vectors, 2016).
“Also recorded” adds a separate entry of the source. Read-outs that look alike come from different tables or passages of the source.

Assays:
juvenile S. japonicum = assay: microbe, parasite or virus in culture; format: cell-based; conditions: for Killing activity 24hr / Killing activity 48hr / Killing activity 72hr / killing at 2 µM / killing at 5 µM / killing at 50 µM: juvenile worms
Protocol: Infected Oncomelania hupensis, provided by the Department of Snail Biology, Jiangsu Institute of Parasitic Diseases, were incubated at 25–28 °C, under illumination, for 2 h to hatch S. japonicum cercariae. The cercariae were collected from the water surface with clean cover glass and placed into a centrifuge tube using pre cooled RPMI 1640. Centrifugation was performed for 1 min at 1500 rpm, and then the steps above were repeated. After centrifugation, the supernatant solution was removed. The cercariae at the bottom were washed twice and resuspended with RPMI 1640. Approximately 20–30 cercariae (1 mL of the resuspension medium) were added to one well in a 24-well culture plate. They were incubated overnight at 37 °C with 5 % CO2. The survival rates and number of tails shed were observed under an inverted microscope. Cercariae that had shed their tails were used as juvenile S. japonicum.
20–30 juvenile worms were transferred into each well of a 24-well culture plate, containing 2 mL RPMI 1640 medium, 20 mM HEPES, 100 IU/mL penicillin, […] streptomycin and 10 % fetal bovine serum. Then, oxadiazole-2-oxides (2, 5, 10, and 50 μM), diluted with the RPMI 1640 medium, were added to their allocated wells. The worms in the negative control wells were treated with equal volumes of RPMI 1640 or DMSO and worms treated with AS were observed as positive controls. The juvenile worms’ survival rates were observed under an inverted phase contrast microscope (Leica, Wetzlar, Germany) at 24, 48 and 72 h. Parasite death was defined as an unclear internal structure of the juvenile worms, with incomplete tegument and contents overflowing radially, or unclear internal structure with complete tegument, but having no motor activity during 1 min of continuous observation. All assays were repeated three times.
^b Data collected by visual examination of worm movement and shape; % D = The number of worms dead / The total number of worms observed, and worms dead judged by unclear internal structure of juvenile worms with uncompleted tegument, and contents overflowing radially, or unclear internal structure with complete tegument, but having no motor activity during 1 min of continuous observation. The data presented are the average of three independent experiments.

recombinant SjTGR = molecular target: T1, recombinant SjTGR (Schistosoma japonicum, UniProt B5THG7); assay: Inhibition of TrxR activity of recombinant SjTGR (DTNB assay); format: biochemical; conditions: 50 nM SjTGR, 1 mM NADPH, 15 min preincubation, DTNB reduction; for IC50: read-out: IC50 of SjTGR
T1 sequence (B5THG7 1-596): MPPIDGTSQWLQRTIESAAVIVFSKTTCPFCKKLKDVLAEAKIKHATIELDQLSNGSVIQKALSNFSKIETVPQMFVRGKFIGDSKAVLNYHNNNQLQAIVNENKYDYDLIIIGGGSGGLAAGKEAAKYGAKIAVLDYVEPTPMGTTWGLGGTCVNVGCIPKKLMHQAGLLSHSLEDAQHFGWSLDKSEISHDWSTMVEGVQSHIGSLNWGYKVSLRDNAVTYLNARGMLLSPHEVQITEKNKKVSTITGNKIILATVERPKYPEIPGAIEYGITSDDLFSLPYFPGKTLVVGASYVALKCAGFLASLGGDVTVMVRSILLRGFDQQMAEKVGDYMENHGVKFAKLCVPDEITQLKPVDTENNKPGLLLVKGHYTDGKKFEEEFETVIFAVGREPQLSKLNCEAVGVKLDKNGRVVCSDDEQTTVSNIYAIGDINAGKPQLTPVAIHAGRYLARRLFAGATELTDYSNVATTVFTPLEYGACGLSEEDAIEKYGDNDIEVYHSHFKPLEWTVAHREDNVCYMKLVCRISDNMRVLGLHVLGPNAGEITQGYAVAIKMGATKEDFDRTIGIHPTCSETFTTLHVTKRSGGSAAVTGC
Protocol: The purified recombinant SjTGR proteins were produced according to the method described by Song et al.. The inhibition of TrxR activity by the recombinant SjTGR was performed as reported by Rai et al.. Briefly, 50 nM SjTGR and 1 mM NADPH were incubated with different concentrations of oxadiazole-2-oxides (2, 4, 6, 10, 20 μM) for 15 min at room temperature. Then, potassium phosphate buffer (pH 7.4) containing 10 mM EDTA, 100 μM NADPH, and 3 mM DTNB was added to start the reaction. The increase of absorbance at 412 nm was monitored during the first 2 min. All assays were done in triplicate.
50 nM SjTGR and 1 mM NADPH were incubated with different concentrations of oxadiazole-2-oxides (2, 4, 6, 10, 20 μM) for 15 min at room temperature. Then, potassium phosphate buffer (pH 7.4) containing 10 mM EDTA, 100 μM NADPH, 3 mM DTNB was added to start the reaction. The increase in absorbance at 412 nm was monitored during the first 2 min. All assays were done in triplicate. Results shown are the mean ± SD (n = 3)

adult S. japonicum = assay: microbe, parasite or virus in culture; format: cell-based; conditions: for Killing activity 24hr / Killing activity 48hr / Killing activity 72hr / killing at 25 µM / killing at 50 µM / killing at 100 µM: adult worms
Excerpt: ICR mice (20–22 g), were obtained from the Shanghai Sub-Center of Experimental Animals, Chinese Academy of Sciences. They were maintained at the Department of Experimental Animals, Jiangsu Institute of Parasitic Diseases. To infect each mouse, its abdominal skin was exposed to 50 S. japonica cercariae. All of the mice were executed to collect S. japonica adult worms, through portal vein perfusion, 35 days post-infection. The adult S. japonica collected were washed with RPMI 1640 medium and then kept in RPMI 1640 medium (pH 7.5) with HEPES 20 mM, penicillin (100 IU/mL), streptomycin ([…]) and 10 % fetal bovine serum. Then, two pairs of adult worms were transferred into each well of a 24-well culture plate, with 2 mL of the same medium. The worms were cultured at 37 °C in a humid atmosphere with 5 % CO2.
Adult worms were cultured in a 24-well culture plate for 30–60 min at 37 °C, in a humid atmosphere with 5 % CO2. Then, oxadiazole-2-oxides at different concentrations (10, 25, 50, 100 μM) were added. Equal volumes of RPMI 1640 or DMSO were applied as negative controls, while PZQ was applied as a positive control. The adult worm mobility and parasite survival rates were monitored using an inverted phase contrast microscope, at 24, 48 and 72 h. Parasite death was defined as there being no motor activity during 2 min of continuous observation, and morphological and tegumental alterations. All assays were repeated three times.
^b Data collected by visual examination of worm movement and shape; n.e. […] The data presented are the average of three independent experiments.

[1] = Schistosoma japonicum, 50 μM, 24 h, read-out: Killing activity 24hr
[2] = Schistosoma japonicum, 50 μM, 48 h, read-out: Killing activity 48hr
[3] = Schistosoma japonicum, 50 μM, 72 h, read-out: Killing activity 72hr

## N#Cc1c(-c2ccc(OCCCOc3ccc(-c4no[n+]([O-])c4C#N)cc3)cc2)no[n+]1[O-] [Compound 21]
Juvenile S. japonicum; 2 μM, 24 h
  Killing activity 24hr: 22.5%D
Juvenile S. japonicum; 2 μM, 48 h
  Killing activity 48hr: 22.5%D
Juvenile S. japonicum; 2 μM, 72 h
  Killing activity 72hr: 27.5%D
Juvenile S. japonicum; 5 μM, 24 h
  Killing activity 24hr: 26.7%D
Juvenile S. japonicum; 5 μM, 48 h
  Killing activity 48hr: 26.7%D
Juvenile S. japonicum; 5 μM, 72 h
  Killing activity 72hr: 30.0%D
Juvenile S. japonicum; 10 μM, 24 h
  Killing activity 24hr: 30.0%D
Juvenile S. japonicum; 10 μM, 48 h
  Killing activity 48hr: 33.3%D
Juvenile S. japonicum; 10 μM, 72 h
  Killing activity 72hr: 56.7%D
Juvenile S. japonicum; 50 μM, 24 h
  Killing activity 24hr: 33.3%D
Juvenile S. japonicum; 50 μM, 48 h
  Killing activity 48hr: 38.3%D
Juvenile S. japonicum; 50 μM, 72 h
  Killing activity 72hr: 67.0%D
Recombinant SjTGR
  IC50 of SjTGR: did not inhibit SjTGR; also recorded: neither did they inhibit the SjTGR activity
  IC50: > 20 µM
Adult S. japonicum; 10 μM, 24 h
  Killing activity 24hr: n.e.
Adult S. japonicum; 10 μM, 48 h
  Killing activity 48hr: sluggish
Adult S. japonicum; 10 μM, 72 h
  Killing activity 72hr: sluggish
Adult S. japonicum; 25 μM, 24 h
  Killing activity 24hr: n.e
Adult S. japonicum; 25 μM, 48 h
  Killing activity 48hr: 100%D
Adult S. japonicum; 25 μM, 72 h
  Killing activity 72hr: 100%D
Adult S. japonicum; 50 μM, 24 h
  Killing activity 24hr: 66.7%D
Adult S. japonicum; 50 μM, 48 h
  Killing activity 48hr: 100%D
Adult S. japonicum; 50 μM, 72 h
  Killing activity 72hr: 100%D
Adult S. japonicum; 100 μM, 24 h
  Killing activity 24hr: 75.0%D
Adult S. japonicum; 100 μM, 48 h
  Killing activity 48hr: 100%D
Adult S. japonicum; 100 μM, 72 h
  Killing activity 72hr: 100%D

## N#Cc1c(-c2ccc(CBr)cc2)no[n+]1[O-] [Compound 22]
Juvenile S. japonicum; Schistosoma japonicum, 24 h, read-out: Mortality of juvenile worms
  mortality at 50 µM: > 70%
Juvenile S. japonicum; Schistosoma japonicum, 2 μM, 24 h, read-out: Killing activity 24hr
  killing at 2 µM: 18.1%
Juvenile S. japonicum; Schistosoma japonicum, 2 μM, 48 h, read-out: Killing activity 48hr
  killing at 2 µM: 30.1%
Juvenile S. japonicum; Schistosoma japonicum, 2 μM, 72 h, read-out: Killing activity 72hr
  killing at 2 µM: 41%
Juvenile S. japonicum; Schistosoma japonicum, 5 μM, 24 h, read-out: Killing activity 24hr
  killing at 5 µM: 18.6%
Juvenile S. japonicum; Schistosoma japonicum, 5 μM, 48 h, read-out: Killing activity 48hr
  killing at 5 µM: 30.2%
Juvenile S. japonicum; Schistosoma japonicum, 5 μM, 72 h, read-out: Killing activity 72hr
  killing at 5 µM: 41.8%
Juvenile S. japonicum; [1]
  killing at 50 µM: 100%
Juvenile S. japonicum; [2]
  killing at 50 µM: 100%
Juvenile S. japonicum; [3]
  killing at 50 µM: 100%
Juvenile S. japonicum; 10 μM, 48 h
  Killing activity 48hr: 41.4%D
Juvenile S. japonicum; 10 μM, 72 h
  Killing activity 72hr: 69.0%D
Recombinant SjTGR
  IC50: 9.7 µM
Adult S. japonicum; Schistosoma japonicum, 24 h, read-out: Mortality of adult worms
  mortality at 25 µM: > 75%
Adult S. japonicum; Schistosoma japonicum, 25 μM, 24 h, read-out: Killing activity 24hr
  killing at 25 µM: 90%
Adult S. japonicum; Schistosoma japonicum, 25 μM, 48 h, read-out: Killing activity 48hr
  killing at 25 µM: 100%
Adult S. japonicum; Schistosoma japonicum, 25 μM, 72 h, read-out: Killing activity 72hr
  killing at 25 µM: 100%
Adult S. japonicum; [1]
  killing at 50 µM: 90.9%
Adult S. japonicum; [2]
  killing at 50 µM: 100%
Adult S. japonicum; [3]
  killing at 50 µM: 100%
Adult S. japonicum; Schistosoma japonicum, 100 μM, 24 h, read-out: Killing activity 24hr
  killing at 100 µM: 100%
Adult S. japonicum; Schistosoma japonicum, 100 μM, 48 h, read-out: Killing activity 48hr
  killing at 100 µM: 100%
Adult S. japonicum; Schistosoma japonicum, 100 μM, 72 h, read-out: Killing activity 72hr
  killing at 100 µM: 100%
Adult S. japonicum; 10 μM, 24 h
  Killing activity 24hr: 44.4%D
Adult S. japonicum; 10 μM, 48 h
  Killing activity 48hr: 66.7%D
Adult S. japonicum; 10 μM, 72 h
  Killing activity 72hr: 88.9%D
